# Results from US9199200B2, “Submerged membrane bioreactor system and biological methods for removing bisphenol compounds from municipal wastewater” (Centre de Recherche Industrielle de Québec (CRIQ), priority 2010, dated 2015).
# Assays:
# [1] = Equilibrium adsorption isotherms of BPA on inactivated sludge (Freundlich, Langmuir); type: physicochemical
# Experimental: To elucidate the plausible mechanisms of the biological removal of the bisphenol compounds, the removal of BPA was tested (adsorption on the biomass versus biological oxidation), and additional experiments are carried out in Erlenmeyer shake flasks containing either activated sludge or inactivated sludge in the presence of BPA. The sludge used for the tests is withdrawn from the SMBR unit. Prior to BPA addition in activated sludge sample, sludge is initially centrifuged at 8000 rpm at 4° C. for 10 min and softly washed. The inactivated sludge is prepared by subjecting sludge samples to a sterilization by adding 1.0 mL HgSO4 (20 g/L) to 200 mL of sludge. Then, the sterilized and centrifuged sample sludge is placed in conical flasks and shaken at 150 rpm at 22±2° C. for 2 h, and then centrifuged at 8000 rpm at 4° C. for 10 min. Different concentrations of BPA (0.45 to 18.2 mg/L) are added in the same mass of sludge (3.0 g of sludge diluted to 200 mL with milli-Q water). The concentration of total suspended solid (sludge) in the flask was 15 g TSS L^−1, which is similar to that observed in the SMBR system of the present invention. Three types of experiments are successively carried out. The first set tests consists in evaluating the adsorption capacity of BPA on sludge. For that, two Erlenmeyer shake flasks containing 200 mL of activated sludge (15 g TSS L^−1) are respectively contaminated by 5 and 10 mg/L of BPA. The flasks are shaken at 150 rpm at 22±2° C., pH=7±0.5 for 24 h and samples are taken in regular time intervals, and the amount of BPA adsorbed is determined by measuring the residual BPA concentrations in solution The same assay is carried out using inactivated sludge. Subsequently, isotherm adsorption experiments are carried out using different concentrations of BPA (0.45-18.2 mg/L) spiked in a same mass of sludge (200 ml of inactivated sludge at 15 g TSS/L). The flasks are shaken at 150 rpm for 2 h and samples are taken for analysis.
# By analogy, the amount of BPA adsorbed on sludge at equilibrium (qe, mg/g) and the sorption efficiency is determined according to equations (1) described above. The specific adsorption coefficient (KD) can also be calculated. The coefficient KD is the ratio between the amount of BPA adsorbed on sludge at equilibrium (qe) and the residual (Ce) concentrations, according to the following equation (Eq. (3)): […]
# Thermodynamic equilibrium constants are determined in order to evaluate adsorption affinity of BPA on sludge. The amount of BPA adsorbed on sludge is calculated using the following equation (Eq. (10)): […]
# Adsorption isotherms allow presenting the variation of sorption with respect to the concentration of sorbate in the bulk solution at constant temperature. Equilibrium adsorptions of BPA on the biomass using Freundlich and Langmuir models are studied. These isotherms describe BPA uptake per unit weight of sorbent (qe) in function of the equilibrium sorbate concentration in the bulk solution (Ce). The Freundlich isotherm is described by the following equation (Eq. (11)) and is illustrated in FIG. 12: […]
# The Langmuir isotherm is described by the following equation (Eq. (12)) and is represented in FIG. 13: […]
# In fact, Langmuir adsorption isotherm is valid for monolayer sorption on a surface containing a limited number of sites, predicting a homogenous distribution of sorption energy. The reorganization of Eq. (12) leads to the following equation (Eq. (13)) as the linearised form of the Langmuir isotherm: […]
# From Langmuir isotherm, it is possible to define a dimensionless constant (RL) taking into account the separation factor of equilibrium parameter. This dimensionless constant allows predicting if the adsorption system is favorable or not, as explained in Shokoohi et al. as cited above and by Gao et al. Journal of Fluorine Chemistry 130 (2009) 1035-1041. RL can be evaluated using the following equation (Eq. (14)): […]
# [2] = Thermodynamic parameters of BPA adsorption on inactivated sludge; type: physicochemical
# Experimental: The third set of assays consisted of evaluating the thermodynamic parameters such as Gibbs free energy)(ΔG^0), enthalpy)(ΔH^0 and entropy)(ΔS^0 changes, which parameters allowed to determine whether BPA sorption on sludge was due to physisorption or chemisorption phenomenon or the combination of both phenomena. For that, Erlenmeyer flasks containing 200 mL of inactivated sludge at 15 g TSS L^−1 and 5 mgL^−1 of BPA are used. Mixing is achieved at 150 rpm and different temperatures (22±2, 30±2 and 40±2° C.) are respectively imposed for 2 h of experiment time.
# In order to calculate whether the adsorption process is spontaneous or not, thermodynamics parameters including standard Gibbs free energy of adsorption (ΔadG^0), standard enthalpy of adsorption (ΔadH^0) and standard entropy change of) adsorption (ΔadS^0) have been considered. ΔadG^0 is calculated using the following equation (Eq. (22)): ΔadG^0=−RT ln Kd (22)
# T is the temperature (K), and KD is the specific adsorption coefficient (equilibrium distribution coefficient). Relation between ΔadG^0, ΔH^0 and ΔadS^0 is expressed by the following equation (Eq. (23)): ΔadG^0=ΔadH^0−TΔadS^0 (23)
# wherein ΔadH^0, ΔadS^0 are calculated from the slope and intercept of the plot of ln KD versus 1/T, respectively.
# The adsorption tests are conducted at different temperatures ranging from 293 K to 313 K. At each temperature, the corresponding KD at fixed initial concentration of BPA is calculated and the corresponding Gibbs free energy change is deducted according to Eq. (22).
# [3] = cited from earlier work
# aquatic ecosystems = conditions: Oehlmann et al.; cited from earlier work
smiles,measurement,setting,value
"CC(C)(c1ccc(O)cc1)c1ccc(O)cc1 [BPA, 2,2-Bis(4-hydroxyphenyl)propane]",Freundlich parameter shown as formula MATH:00015,[1],0.819
same,KL (Langmuir constant),[1],0.370 L/g
same,"RL (dimensionless separation factor, Langmuir)",[1],0.11
same,b (Langmuir constant),[1],0.444 L/mg
same,kf (Freundlich isotherm constant),[1],0.231 mg^1-1/n g^−1 · L^1/n
same,"n (Freundlich constant, adsorption intensity)",[1],1.22
same,"qm, maximum BPA concentration capable of being adsorbed on sludge (Langmuir, KL/b)",[1],0.833 mg/g
same,Adsorbed fraction,[1]; C0 0.45 mg/L,84.4%
same,Equilibrium liquid phase concentration of BPA (Ce),[1]; C0 0.45 mg/L,0.07 mg/L
same,Adsorbed fraction,[1]; C0 0.91 mg/L,85.7%
same,Equilibrium liquid phase concentration of BPA (Ce),[1]; C0 0.91 mg/L,0.13 mg/L
same,Adsorbed fraction,[1]; C0 1.82 mg/L,78.6%
same,Equilibrium liquid phase concentration of BPA (Ce),[1]; C0 1.82 mg/L,0.39 mg/L
same,Adsorbed fraction,[1]; C0 4.74 mg/L,77.0%
same,Equilibrium liquid phase concentration of BPA (Ce),[1]; C0 4.74 mg/L,1.09 mg/L
same,Adsorbed fraction,[1]; C0 9.47 mg/L,76.0%
same,Equilibrium liquid phase concentration of BPA (Ce),[1]; C0 9.47 mg/L,2.27 mg/L
same,Adsorbed fraction,[1]; C0 13.67 mg/L,74.8%
same,Equilibrium liquid phase concentration of BPA (Ce),[1]; C0 13.67 mg/L,3.45 mg/L
same,Adsorbed fraction,[1]; C0 18.22 mg/L,70.5%
same,Equilibrium liquid phase concentration of BPA (Ce),[1]; C0 18.22 mg/L,5.37 mg/L
same,Adsorption removal of BPA on sludge,"[1]; of initial liquid phase concentration, 0.45-18.2 mg/L",70.5 to 85.7%
same,ΔadH^0,[2]; 293-313 K,−82.121 KJmol^−1
same,ΔadS^0,[2]; 293-313 K,−0.257 KJmol^−1K^−1
same,ΔadG^0,[2]; 293 K,-7.197 kJ/mol
same,ΔadG^0,[2]; 303 K,-3.019 kJ/mol
same,ΔadG^0,[2]; 313 K,-2.120 kJ/mol
same,Equilibrium adsorption time,"[3]; Chen et al., submerged membrane bioreactor process",30 min
same,Freundlich coefficient log Kf,[3]; Clara et al.,−0.614
same,BPA adsorption equilibrium time,"[3]; Clara et al., conventional activated sludge reactor",2 h
same,Concentration of BPA with adverse effects in aquatic ecosystems,aquatic ecosystems,below 1.0 μg/L
